Eight molecules from PMC11211329, “Phage-encoded bismuth bicycles enable instant access to targeted bioactive peptides” (Communications Chemistry, 2024) can be followed below.

Usually Kd stands for the equilibrium constant for the complex coming apart. A low value points to higher affinity.

The target in one data set is T1, streptavidin (Streptomyces avidinii, UniProt P22629).
T1 construct: purchased New England Biolabs
Kind of data set: biochemical. The format is binding. To be noted: for affinity towards streptavidin (in words) / Response / affinity of linear versus bicyclic peptide (in words): SPR. On the procedure: SPR measurements were performed with 20 mM HEPES–KOH pH 7.4, 150 mM NaCl, 0.5 mM TCEP, 0.05% (v/v) polysorbate 20 as running buffer. For each experiment, 100–150 μg streptavidin in 10 mM sodium acetate pH 3.9 buffer was freshly immobilised on a sensor chip flow-cell using EDC/NHS chemistry at 25 °C in absence of TCEP. All binding experiments were conducted at 20 °C in single-cycle kinetics mode (Fig. 4, Supplementary Figs. 17, 18, Supplementary Data 2).
SPR experiments were performed on a Biacore 8K (Cytiva, USA) using a CM5 chip (Cytiva, 29104988, USA), onto which streptavidin (New England Biolabs, USA) was freshly immobilised using an amine coupling kit (Cytiva, USA) for each individual experiment. The instrument was operated using Biacore Insight 5 software (Cytiva, USA). The data were plotted and analysed in GraphPad Prism 10 (Dotmatics, USA) using the non-linear fit ‘one site – specific binding’ (Supplementary Equation 2). KD values of duplicate measurements are represented as the mean value ± standard deviation.
Supplementary Equation 2.
X = analyte concentration [µM]
RUmax = maximum response [RU]
KD = dissociation constant [µM]

The subject of data set [1] is naïve three-cysteine phage library. The data set is described as follows: Plaque-forming assay, effect of bicyclisation reagent on phage infectivity. The format is cell-based, M13 bacteriophage. The note with it: 120 μM, 5 min exposure. The procedure: bismuth(III). The reaction mixture was vortexed briefly once more and incubated at room […]
Modification with bismuth tripotassium dicitrate (gastrodenol)
Bismuth tripotassium dicitrate (gastrodenol) in ultrapure sterile water (50 mM) was added to the reduced phage solution while gently vortexing to a final volume of 1040 μL to obtain a final concentration of 120 μM bismuth(III). The reaction mixture was vortexed briefly once more and incubated at room temperature for 5 min.
Modification with sodium arsenite (NaAsO2)
Sodium arsenite (NaAsO2) in ultrapure sterile water (50 mM) was added to the reduced phage solution while gently vortexing to a final volume of 1040 μL to obtain a final concentration of 120 μM arsenic(III). The reaction mixture was vortexed briefly once more and incubated at room […]
An overnight culture of Escherichia coli ER2738 (New England Biolabs, E4104, USA), a strain commonly used for phage display, was prepared by growing the bacteria in tetracycline containing LB media at 37 °C for 16 h at 220 rpm. Aliquots of 3 mL of melted top agar were transferred into sterile polystyrene tubes (Corning, 352051, USA) and heated up to 50 °C on a dry bath (Thermo Fisher, 88870004, USA) until ready to use. A dilution series of the phage library was prepared as required, at a final volume of 1 mL, whereby a 10 μL portion of each phage dilution was added to 200 μL of the bacterial overnight culture, incubated for 5 min and transferred fully into a tube containing 3 mL top agar. The contents in the tube were gently mixed by vortexing and poured entirely on a warm LB/IPTG/X-Gal plate, allowing the top agar-mixture to spread evenly across the plate. The plate was allowed to solidify and left in an incubator oven overnight at 37 °C. The number of plaques was counted by selecting plates with plaques separated at a countable level.
The concentration of the original solution was then calculated in pfu/mL using the following equation (Supplementary Equation 1).
Supplementary Equation 1.
concentration of original phage library solution = number of plaques ∙ dilution factor [pfu/mL]
Effect of bicyclisation reagent on phage infectivity
To evaluate the impact of bismuth(III) and arsenic(III) on the infectivity of the naïve three-cysteine phage library, phage titres were measured both before and after the addition of the metal(loid).
Accordingly, for each modification experiment three 1000 μL aliquots of ~1011 pfu/mL of freshly amplified naïve phage library in PBS were set aside and subjected to a plaque-forming assay to determine their titre. Next, these library aliquots were individually exposed to either 120 μM bismuth(III) from BiBr3 (50 mM DMSO) or gastrodenol (50 mM in ultrapure water) or 120 μM arsenic(III) from NaAsO2 (50 mM in ultrapure water), with each reagent being used for the modification of three library aliquots. During addition of the thiophilic element, the reaction mixtures were briefly vortexed and incubated at room temperature for 5 min. Excess reagent was removed from the modified phage library solution using spin desalting columns (Thermo Fisher, 89883, USA) at 2000 × g for 2.5 min. The titre of the modified phage solution was subsequently determined using the plaque-forming assay, which was also performed in triplicate. A parallel experiment was conducted using the addition of PBS as the control. Phage titres before and after their respective modification were plotted in GraphPad Prism 10 (Dotmatics, USA) […]
Supplementary Fig. 20. […]

Where “and” joins values, the source holds several entries; their conditions need not be identical. Equal values may be shown once. Peptide text beside a SMILES is read from it.

T1 sequence (P22629 25-183): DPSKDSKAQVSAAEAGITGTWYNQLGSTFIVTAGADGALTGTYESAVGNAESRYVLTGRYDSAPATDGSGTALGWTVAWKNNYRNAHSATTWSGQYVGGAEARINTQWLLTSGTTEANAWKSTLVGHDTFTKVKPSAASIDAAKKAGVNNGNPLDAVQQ

In turn, `CC(C)[C@@H]1NC(=O)[C@H](CCC(N)=O)NC(=O)[C@@H]2CCCN2C(=O)[C@H](Cc2c[nH]cn2)NC(=O)[C@@H](NC(=O)[C@H](C)N)CS[As]2SC[C@@H](C(N)=O)NC(=O)[C@H](CCC(=O)O)NC(=O)[C@H]([C@@H](C)O)NC(=O)[C@@H]3CCCN3C(=O)[C@H](CO)NC(=O)[C@H](CS2)NC1=O` [4a] gave a Kd at streptavidin of 42.8 ± 3.5 µM. Also, on streptavidin, the “affinity towards streptavidin (in words)” value was “micromolar affinity”. Besides, the Response on streptavidin (0.390625 μM peptide) was 3.3313 RU and 3.9342 RU; at streptavidin (0.78125 μM peptide) it was 3.4046 RU and 4.4109 RU; on streptavidin (1.5625 μM peptide) it was 4.0632 RU and 5.3459 RU; on streptavidin (3.125 μM peptide) it was 6.3333 RU and 7.9821 RU; at streptavidin (6.25 μM peptide) it was 11.621 RU and 13.3151 RU; at streptavidin (12.5 μM peptide), 22.2246 RU and 23.8712 RU. Moreover, the Response on streptavidin (25 μM peptide) is 39.0098 RU and 40.7076 RU; on streptavidin (50 μM peptide), 57.9196 RU and 59.6228 RU; on streptavidin (100 μM peptide) it was 73.3509 RU and 75.0552 RU.

As for `CC(C)[C@@H]1NC(=O)[C@H](CCC(N)=O)NC(=O)[C@@H]2CCCN2C(=O)[C@H](Cc2c[nH]cn2)NC(=O)[C@@H](NC(=O)[C@H](C)N)C[S][Bi]2[S]C[C@@H](C(N)=O)NC(=O)[C@H](CCC(=O)O)NC(=O)[C@H]([C@@H](C)O)NC(=O)[C@@H]3CCCN3C(=O)[C@H](CO)NC(=O)[C@H](C[S]2)NC1=O` [4b], the “affinity towards streptavidin (in words)” value at streptavidin is given as “two-digit micromolar dissociation constants”. Moreover, the Response at streptavidin (0.78125 μM peptide) is 5.1388 RU; on streptavidin (1.5625 μM peptide), 8.1368 RU; at streptavidin (3.125 μM peptide), 20.2314 RU; at streptavidin (6.25 μM peptide), 72.2878 RU; at streptavidin (12.5 μM peptide), 222.296 RU; at streptavidin (25 μM peptide), 413.089 RU. The Response at streptavidin (50 μM peptide) came to 508.05 RU; at streptavidin (100 μM peptide), 531.655 RU; at streptavidin (200 μM peptide) it was 538.328 RU.

For `[Bi+3]` [Bi(III)], the “effect on phage infectivity” value in data set [1] is listed as “uncompromised”.

For `[Br][Bi]([Br])[Br]` [BiBr3, bismuth tribromide], in data set [1], the “effect on phage infectivity” value is reported as “no relevant negative effect”.

Turning to `O=[As][O-].[Na+]` [NaAsO2, sodium arsenite], the “effect on phage infectivity” value in data set [1] is reported as “no relevant negative effect”; in data set [1] (listed as As(III)) it was “uncompromised”.

For the molecule `C[C@H](N)C(=O)N[C@@H](CS)C(=O)N1CCC[C@H]1C(=O)N[C@@H](Cc1c[nH]cn1)C(=O)N1CCC[C@H]1C(=O)N[C@@H](CCC(N)=O)C(=O)N[C@@H](CS)C(=O)N[C@@H](CCC(=O)O)C(=O)N[C@@H](C)C(=O)N[C@@H](C)C(=O)N[C@@H](C)C(=O)N[C@@H](CS)C(N)=O` [compound 2] (H-ACPHPQCEAAAC-NH2), the equilibrium dissociation constant (Kd) on streptavidin was determined as 1520 µM. For the same molecule, the “affinity of linear versus bicyclic peptide (in words)” value on streptavidin is “two orders of magnitude lower affinity”. Moreover, the Response stood at 3.2958 RU at streptavidin (15.625 μM peptide); 3.9468 RU at streptavidin (31.25 μM peptide); 5.3014 RU at streptavidin (62.5 μM peptide); 8.119 RU at streptavidin (125 μM peptide); 13.0777 RU on streptavidin (250 μM peptide); 20.3557 RU on streptavidin (500 μM peptide). Further, the Response is 32.6253 RU on streptavidin (1000 μM peptide), 47.8172 RU on streptavidin (2000 μM peptide) and 62.2756 RU on streptavidin (4000 μM peptide).

The molecule `C[C@H](N)C(=O)N[C@@H](CS)C(=O)N[C@@H](Cc1c[nH]cn1)C(=O)N1CCC[C@H]1C(=O)N[C@@H](CCC(N)=O)C(=O)N[C@@H](CC(N)=O)C(=O)N[C@@H](CS)C(=O)N[C@H](C(=O)N[C@@H](CCC(=O)O)C(=O)N1CCC[C@H]1C(=O)N[C@@H](C)C(=O)N[C@@H](CS)C(N)=O)[C@@H](C)O` [compound 3] (H-ACHPQNCTEPAC-NH2) displayed a dissociation constant (Kd) on streptavidin of 927 µM. For the same molecule, the “affinity of linear versus bicyclic peptide (in words)” value at streptavidin is on record as “two orders of magnitude lower affinity”. Moreover, the Response at streptavidin (11.7188 μM peptide) turned out to be 4.8115 RU; on streptavidin (23.4375 μM peptide) it was 6.9877 RU; at streptavidin (46.875 μM peptide) it was 10.9154 RU; on streptavidin (93.75 μM peptide), 18.7272 RU; on streptavidin (187.5 μM peptide), 34.0455 RU; on streptavidin (375 μM peptide) it was 61.2377 RU. For the same molecule, the Response at streptavidin (750 μM peptide) came to 109.838 RU; at streptavidin (1500 μM peptide), 163.522 RU; on streptavidin (3000 μM peptide) it was 172.646 RU.

On to `O=C([O-])CC(O)(CC(=O)[O-])C(=O)[O-].O=C([O-])CC(O)(CC(=O)[O-])C(=O)[O-].[Bi+3].[K+].[K+].[K+]` [gastrodenol, bismuth tripotassium dicitrate], for which the “effect on phage infectivity” value in data set [1] is recorded as “no relevant negative effect”.
